Converted amounts (≈) assume the structure as drawn. Where two headings read alike, the source gives them in different places.
Tests used:
Staphylococcus aureus = test: In vitro activity vs. Staphylococcus aureus strains, agar dilution, Mueller-Hinton agar (Table 6); format: cell-based
[1] = test system: Staphylococcus epidermidis; test: In vitro activity vs. Staphylococcus epidermidis strains, agar dilution, Mueller-Hinton agar (Table 7); format: cell-based
Eubacterium aerofaciens = test: Susceptibility of anaerobic bacterial isolates, agar dilution (Table 13); format: cell-based; settings: Collinsella aerofaciens, 24 h
[2] = test system: Peptococcum asaccharolyticus; test: as above; format: cell-based; settings: 24 h
[3] = test system: Peptostreptococcus anaerobium; test: as above; format: cell-based; settings: 24 h
Propionibacterium acnes = test: as above; format: cell-based; settings: Cutibacterium acnes, 24 h
[4] = test system: Bacteroides malaninogenicus; test: as above; format: cell-based; settings: 24 h
[5] = test system: Fusobacterium necrophorum; test: as above; format: cell-based; settings: 24 h
Peptococcus prevoti = test: Susceptibility of anaerobic cocci isolates, agar dilution (Table 16); format: cell-based; settings: 24 hr, A84575: 3 different lots
Source text: *MIC Determined by the AgarDilution Method, Endpoints Read After 24Hr.

[6] = test system: Peptostreptococcus anaerobius; test: as above; format: cell-based; settings: 24 h
Streptococcus pyogenes [7] = test: In vivo activity, administered subcutaneously to mice (Table 17); settings: sc, subcutaneous, LD challenge 464
Streptococcus aureus = test: as above; settings: sc
[8] = Plasma levels in mice (Table 18); format: in vivo, mice (ICR Barrier); parameters: unit not given here; settings: subcutaneous, 20 mg/kg, n = 5
Streptococcus pyogenes [9] = test: In vitro activity vs. Streptococcus pyogenes strains, agar dilution, Mueller-Hinton agar (Table 11)
S. mutans = test: In vitro activity vs. miscellaneous Streptococcus strains, agar dilution, Mueller-Hinton agar (Table 9)

CN[C@H](CC(C)C)C(=O)N[C@H]1C(=O)N[C@@H](CC(N)=O)C(=O)N[C@H]2C(=O)N[C@H]3C(=O)N[C@H](C(=O)N[C@H](C(=O)O)c4cc(O)cc(O)c4-c4cc3ccc4O)[C@H](O)c3ccc(c(Cl)c3)Oc3cc2cc(c3O[C@@H]2O[C@H](CO)[C@@H](O)[C@H](O)[C@H]2O[C@H]2C[C@](C)(N)[C@H](O)[C@H](C)O2)Oc2ccc(cc2Cl)[C@H]1O [Vancomycin]
MIC (Staphylococcus aureus; strain 3055): 1 µg/mL (≈ 0.69 µM)
MIC (Staphylococcus aureus; strain 3109): 1 µg/mL (≈ 0.69 µM)
MIC (Staphylococcus aureus; strain 3110): 0.5 µg/mL (≈ 0.345 µM)
MIC (Staphylococcus aureus; strain 3123): 1 µg/mL (≈ 0.69 µM)
MIC (Staphylococcus aureus; strain 3128): 1 µg/mL (≈ 0.69 µM)
MIC (Staphylococcus aureus; strain 3131, methicillin-resistant): 0.5 µg/mL (≈ 0.345 µM)
MIC (Staphylococcus aureus; strain 3136): 1 µg/mL (≈ 0.69 µM)
MIC (Staphylococcus aureus; strain 3484A, methicillin-resistant): 1 µg/mL (≈ 0.69 µM)
MIC (Staphylococcus aureus; strain 25923): 2 µg/mL (≈ 1.38 µM)
MIC (Staphylococcus aureus; strain #43, methicillin-resistant): 0.5 µg/mL (≈ 0.345 µM)
MIC (Staphylococcus aureus; strain BGB #10, methicillin-resistant): 1 µg/mL (≈ 0.69 µM)
MIC (Staphylococcus aureus; strain CVT#6, methicillin-resistant): 0.5 µg/mL (≈ 0.345 µM)
MIC (Staphylococcus aureus; strain DUTT, methicillin-resistant): 0.5 µg/mL (≈ 0.345 µM)
MIC (Staphylococcus aureus; strain H290): 1 µg/mL (≈ 0.69 µM)
MIC (Staphylococcus aureus; strain H535): 0.5 µg/mL (≈ 0.345 µM)
MIC (Staphylococcus aureus; strain ID-VI #1, methicillin-resistant): 0.5 µg/mL (≈ 0.345 µM)
MIC (Staphylococcus aureus; strain Seattle 973, methicillin-resistant): 0.5 µg/mL (≈ 0.345 µM)
MIC (Staphylococcus aureus; strain V92): 0.5 µg/mL (≈ 0.345 µM)
MIC ([1]; strain 10-S-81, methicillin-resistant): 1 µg/mL (≈ 0.69 µM)
MIC ([1]; strain 1202-18): 2 µg/mL (≈ 1.38 µM)
MIC ([1]; strain 3078): 1 µg/mL (≈ 0.69 µM)
MIC ([1]; strain 3079): 2 µg/mL (≈ 1.38 µM)
MIC ([1]; strain 12477, methicillin-resistant): 2 µg/mL (≈ 1.38 µM)
MIC ([1]; strain 48213): 2 µg/mL (≈ 1.38 µM)
MIC ([1]; strain 48989): 1 µg/mL (≈ 0.69 µM)
MIC ([1]; strain 49030): 2 µg/mL (≈ 1.38 µM)
MIC ([1]; strain 49128, methicillin-resistant): 1 µg/mL (≈ 0.69 µM)
MIC ([1]; strain 49536): 1 µg/mL (≈ 0.69 µM)
MIC ([1]; strain 50766): 1 µg/mL (≈ 0.69 µM)
MIC ([1]; strain S-3): 2 µg/mL (≈ 1.38 µM)
MIC ([1]; strain ST-214, methicillin-resistant): 0.5 µg/mL (≈ 0.345 µM)
MIC ([1]; strain ST-215, methicillin-resistant): 2 µg/mL (≈ 1.38 µM)
MIC ([1]; strain ST-216): 1 µg/mL (≈ 0.69 µM)
MIC ([1]; strain ST-217, methicillin-resistant): 1 µg/mL (≈ 0.69 µM)
MIC ([1]; strain ST-220, methicillin-resistant): 1 µg/mL (≈ 0.69 µM)
MIC ([1]; strain ST-222, methicillin-resistant): 0.5 µg/mL (≈ 0.345 µM)
MIC (Eubacterium aerofaciens): 8 µg/mL (≈ 5.52 µM)
MIC [2]: 4 µg/mL (≈ 2.76 µM)
MIC [3]: 1 µg/mL (≈ 0.69 µM)
MIC (Propionibacterium acnes): 4 µg/mL (≈ 2.76 µM)
MIC ([4]; strain 1856/28, A84575: 3 different lots): > 64 µg/mL
MIC ([4]; strain 2736, A84575: 3 different lots): 16 µg/mL (≈ 11 µM)
MIC [5]: 1 µg/mL (≈ 0.69 µM)
MIC (Peptococcus prevoti; strain 1281, read-out: MIC): 2 µg/mL (≈ 1.38 µM)
MIC (Peptococcus prevoti; strain 1293): 2 µg/mL (≈ 1.38 µM)
MIC (Peptococcus prevoti; strain 1407): 2 µg/mL (≈ 1.38 µM)
MIC ([6]; strain 8, A84575: 3 different lots): 1 µg/mL (≈ 0.69 µM)
MIC ([6]; strain 52, A84575: 3 different lots): 1 µg/mL (≈ 0.69 µM)
MIC ([6]; strain 59, A84575: 3 different lots): 0.25 µg/mL (≈ 0.173 µM)
MIC ([6]; strain 1428, A84575: 3 different lots): 0.03 µg/mL (≈ 0.0207 µM)
MIC ([6]; strain 1451, A84575: 3 different lots): 2 µg/mL (≈ 1.38 µM)
MIC ([6]; strain 1477, A84575: 3 different lots): 2 µg/mL (≈ 1.38 µM)
ED50 (Streptococcus pyogenes [7]): 0.72 mg/kg
ED50 (Streptococcus aureus): 0.83 mg/kg
Plasma level ([8]; 0.08 hours, *1 only 1 zone out of 5 (A84575 Complex)): 5.84 ± 2.68
Plasma level ([8]; 0.33 hours): 14.25 ± 7.8
Plasma level ([8]; 0.66 hours): 7.47 ± 2.5
Plasma level ([8]; 1 hour): 5.41 ± 2.4
Plasma level ([8]; 2 hours, *2 one very high concentration in one animal (A84575 Complex)): 0.87 ± 0.2
MIC (Streptococcus pyogenes [9]; ATCC12344, strain ATCC 12344): 1 µg/mL (≈ 0.69 µM)
MIC (Streptococcus pyogenes [9]; strain 9931): 0.5 µg/mL (≈ 0.345 µM)
MIC (Streptococcus pyogenes [9]; strain 10389): 0.5 µg/mL (≈ 0.345 µM)
MIC (Streptococcus pyogenes [9]; strain 12385): 2 µg/mL (≈ 1.38 µM)
MIC (Streptococcus pyogenes [9]; strain 12961): 1 µg/mL (≈ 0.69 µM)
MIC (Streptococcus pyogenes [9]; strain C203): 1 µg/mL (≈ 0.69 µM)
MIC (Streptococcus pyogenes [9]; strain DS663-72): 0.5 µg/mL (≈ 0.345 µM)
MIC (Streptococcus pyogenes [9]; strain HB93): 1 µg/mL (≈ 0.69 µM)
MIC (Streptococcus pyogenes [9]; strain K-1): 0.5 µg/mL (≈ 0.345 µM)
MIC (Streptococcus pyogenes [9]; strain K-2): 0.5 µg/mL (≈ 0.345 µM)
MIC (Streptococcus pyogenes [9]; strain K-3): 0.5 µg/mL (≈ 0.345 µM)
MIC (Streptococcus pyogenes [9]; strain K-4): 1 µg/mL (≈ 0.69 µM)
MIC (Streptococcus pyogenes [9]; strain K-5): 1 µg/mL (≈ 0.69 µM)
MIC (Streptococcus pyogenes [9]; strain K-6): 0.5 µg/mL (≈ 0.345 µM)
MIC (S. mutans; strain SM-1122): 1 µg/mL (≈ 0.69 µM)
MIC (S. mutans; strain SM-1134): 2 µg/mL (≈ 1.38 µM)

Reference: patent US5286648A, “A84575 antibiotics” (Eli Lilly and Company, priority 1991, dated 1994)
